Drawing on patent US7138403B2, “2,4,5-trisubstituted thiazolyl derivatives and their antiinflammatory activity” (Janssen Pharmaceutica N.V., priority 2001, dated 2006), this text covers inhibition for eleven compounds.

The subject of one test is IL-12p40 production. Briefly: In vitro inhibition of IL-12p40 production in human blood (LPS-stimulated whole blood, ELISA). The test is classed as cell-based. The note with it: test dose 1 × 10^−6 M, LPS 100 ng/ml, 24 hours, read-out: % inhib. IL-12 (p40). How it is done:
In Vitro Inhibition of IL-12p40 Production in Human Blood
Human Whole Blood Stimulation
Peripheral blood from healthy male donors was drawn into heparinized syringes (12.5 U heparin/ml). Blood samples were three-fold diluted in RMPI 1640 medium (Life Technologies, Belgium) supplemented with 2 mM L-glutamine, 100 U/ml penicillin and 100 μg/ml streptomycin, and 300 μl fractions were distributed in 24-well multidisc plates (Nunc, Roskilde, Denmark). Blood samples were preincubated (60 minutes at 37° C.) in a humidified 6% CO2-atmosphere with 100 µl of drug solvent (final concentration 0.02% dimethylsulfoxide in RPMI 1640) or with 100 μl of an appropriate dose of test compound before being stimulated by the addition of 100 μl of lipopolysaccharide at a final concentration of 100 ng/ml. After 24 hours, cell-free supernatant fluids were collected by centrifugation and stored at −20° C. until tested for the presence of IL-12 p40.
Cytokine protein concentrations were determined by sandwich ELISA as described in Van Wauwe et al. (1996, Inflamm Res, 45, 357–363). Murine monoclonals used as capture antibodies to human cytokines were obtained from R&D Systems (Abingdon, United Kingdom) and code named MAB210 and MAB611 for TNF-α and IL-12 p40 respectively. Biotinylated goat polyclonal antibodies used to detect human cytokines were from R&D Systems (BAF210, BAF219). Cytokine levels were calculated from standard curves using recombinant cytokines supplied by R&D Systems.
Regarding `Cc1nc(-c2ccc(C(F)(F)F)cc2)sc1-c1ccnc(N)n1` [Compound 9], the inhibition at 1 µM was 57%. As for `Cc1nc(-c2ccc(C(F)(F)F)cc2)sc1-c1ccnc(NCCCN)n1` [Compound 38], the inhibition at 1 µM was 93%. On the same count and under the same terms, the value for `Cc1nc(-c2ccc(C(F)(F)F)cc2)sc1-c1ccnc(C#N)n1` [Compound 40] was 93%; that for `Cc1nc(-c2ccc(C(F)(F)F)cc2)sc1-c1nc(N)ncc1F` [Compound 49] was 92%.

`Cc1nc(-c2ccc(C(F)(F)F)cc2)sc1-c1cc(O)nc(N)n1` [Compound 80]: the inhibition at 1 µM turned out to be 49%.

As to `COc1nccc(-c2sc(-c3ccc(C(F)(F)F)cc3)nc2C)n1` [Compound 83], the inhibition at 1 µM was determined as 59%. Consider `Cc1nc(-c2ccc(C(F)(F)F)cc2)sc1-c1ccnc(NCC(=O)O)n1` [Compound 90], for which the inhibition at 1 µM amounted to 56%.

The test system of another test is IL-12p70 production. Briefly: In vitro inhibition of IL-12p70 production in human blood (LPS-stimulated whole blood, ELISA). It is filed as cell-based. The note with it: test dose 1 × 10^−8 M, LPS 100 ng/ml, 24 hours, read-out: % inhib. IL-12 (p70). The protocol:
In Vitro Inhibition of IL-12p70 Production in Human Blood Human Whole Blood Stimulation Peripheral blood from healthy donors was drawn into heparinized syringes (12.5 U heparin/ml). Blood samples were three-fold diluted in RMPI 1640 medium (Life Technologies, Belgium) supplemented with 2 mM L-glutamine, 100 U/ml penicillin and 100 μg/ml streptomycin, and 200 μl fractions were distributed in 96-well plates (Nunc, Roskilde, Denmark). Blood samples were preincubated (5 minutes at 37° C.) in a humidified 5% CO2-atmosphere with 25 μl of drug solvent (final concentration 0.1% dimethylsulfoxide in RPMI 1640) or with 25 μl of an appropriate dose of test compound before being stimulated by the addition of 25 μl of lipopolysaccharide at a final concentration of 100 ng/ml. After 24 hours, cell-free supernatant fluids were collected by centrifugation and stored at −20° C. until tested for the presence of IL-12. Cytokine Measurements Cytokine protein concentrations were determined by sandwich ELISA as described in Van Wauwe et al. (1996, Inflamm Res, 45,357–363). The quantikine HS kit (R &D HS120, Abingdon, United Kingdom) was used to quantify the cytokine levels (IL12 p70) in the supernatant
Regarding `Cc1nc(-c2ccc(C(F)(F)F)cc2)sc1-c1ccnc(N)n1` [Compound 9], the inhibition at 0.01 µM was found to be 92%. For `Cc1nccc(-c2sc(-c3ccc(C(F)(F)F)cc3)nc2C)n1` [Compound 35], the inhibition at 0.01 µM was 94%.

In the case of `Cc1nc(-c2ccc(C(F)(F)F)cc2)sc1-c1ccnc(N(CCO)CCO)n1` [Compound 70], the inhibition at 0.01 µM turned out to be 90%. In the case of `Cc1nc(-c2ccc(C(F)(F)F)cc2)sc1-c1ncnc(N)n1` [Compound 81], the inhibition at 0.01 µM came to 94%. Take `Cc1nc(-c2ccc(C(F)(F)F)cc2)sc1-c1ccnc(NCCC(=O)O)n1` [Compound 84]: the inhibition at 0.01 µM was 95%.
